Experimental data taken from patent publication US6200962A, “Thionophosphate derivatives, process for their preparation and pharmaceutical compositions containing them” (priority 1994, dated 2001).

Assays:
[1] = Scavenging of sodium hypochlorite followed by 31P NMR; details: 5 mM in water, 6 mM NaOCl, immediately after exposure
Experimental: ROS reaction with AMTP were recorded by ^31 P NMR spectra. ^31 P spectra were referenced to 1% H3 PO4 in D2 O and used as an external standard.
Compound B (5 mM in water) was introduced into 6 mM sodium hypochlorite.

[2] = oil(mineral)/water and octanol/water partitioning; format: physicochemical
From the text: The basic chemical structure of the compounds of the invention includes the group --P--N=S, which resembles the thiourea --N--C=S core, in which the central carbon atom has been replaced by a phosphorus atom, to give --N--P=S, which is the characteristic functional group the novel compounds of the invention. This functional group is based on a primary amido thionophosphate (AMTP) chemical bond. The specific compounds shown in FIG. 1, which are only representative of the numerous possible compounds, differ in their oil(mineral) /water and octanol/water partitioning: […]

[3] = tested on: Human neutrophils (PMNs); experiment: Chemiluminescence of PMNs activated by cationized streptococci; format: cell-based
Experimental: Human neutrophils (PMNs) were isolated from freshly drawn human blood according to already published procedures [Ginsburg et al., ibid.].
Chemiluminescence was measured in activated PMNs at 37° C. in a LUMAC/3M BIOCONTER M2010 connected to a linear recorder. PMNs (3*10^5 -2*10^6 /ml) were pipetted into plastic cuvettes, containing 1 ml HBSS, luminol (5*10^-5 M) and washed Streptococci 20 μl/ml (ten milliliters of a saline-washed suspension of group A Streptococci type 3 strain C203S of an optical density of 5.0 at 550 nm that was treated for 15 min at 37° C. with 100 μg/ml of poly L-histidine (PHSTD)HCL mol wt 23,000). The cationized suspension was then washed in normal saline and resuspended to the original volume. The cuvettes were mixed over a mechanical vortex and the chemiluminescence was immediately monitored until the peak CL was reached.
Modulation of chemiluminescence response was achieved by employing AMTP (compound B) molecules in various concentrations.
Two experiments were done. In the first experiment with 3-4*10^5 cells/ml, a concentration of less than 1 mM of compound B was required to quench 90% of light production. Control 1 in FIG. 13 represents neutrophils treated with streptococcus alone (14,000-17,000 light units at the peak), Spontaneous light production measurements were 1,400-2,000 light CPM. In the second experiment Control 2 represents 1.5*10^6 cells per 1 ml HBSS activation of the cells by cationized streptococcus produced between 50,000-63,000 light units at the peak. 8 mM of compound B reduced the light measurements to the base level of 3500 light units.

[4] = tested on: Sabra mice; experiment: Toxicity study, i.p. injection; format: in vivo
Experimental: (§1) The toxicity of compound B was tested by injecting 75 mg/kg, 150 mg/kg, 300 mg/kg, 500 mg/kg, 700 mg/kg and 1000 mg/kg i.p. to groups of eight Sabra mice. In addition, a repetitive i.p. injection of 75 mg/kg/day over a period of two weeks was conducted on eight mice. The mice were monitored for mortality and for chances in their weight compared to a saline injected control group.
(§2) The toxicity of compound B was tested by injecting 75 mg/kg, 150 mg/kg, 300 mg/kg, 500 mg/kg, 700 mg/kg and 1000 mg/kg i.p. to groups of eight Sabra mice.

[5] = Toxicity study, i.p. injection; format: in vivo, Sabra mice; details: mouse, in vivo, ip, single, Sabra mice
Experimental: as §1, §2

[6] = tested on: Human skin fibroblasts; experiment: Chromium release from fibroblasts, killing by streptolysin S and glucose oxidase; format: cell-based
Experimental: Human skin fibroblasts were kindly supplied by the Department for Human Genetics at Hadassa Hospital in Jerusalem. The cells were grown in D-MEM medium supplemented with glutamine, penicillin, and streptomycin and 10% fetal calf serum [Ginsburg, I. et al. (1992) Inflammation 16:519-538]. Radiolabeled cell monolayers were prepared by the addition of 10 μCi/ml of [^51 Cr]NaCrO4 (New England Nuclear) to […] of trypsinized cells grown in 75-ml tissue culture bottles. The cells were then dispensed into 24-well tissue culture plates (Nunc, Roskilde, Denmark) and grown to confluency in a CO2 incubator.
Hydrogen peroxide flux was generated by the addition of glucose oxidase (0.5 units/ml) to the tissue culture media. Streptolysin S (SLS) of Croup A Streptococci (17 hemolytic units/ml) was employed as a membrane damaging agent.
Culture monolayers were treated for 1 h with the agents listed above. The cultures were monitored periodically for changes in cell morphology. To assess cytotoxicity, the supernatant fluids were removed and centrifuged at 2000 rpm for 2 min. The solubilized radioactivity was then determined in a Contron gamma counter. The total radioactivity associated with untreated controls was solubilized by the addition of 1 ml of 1% Triton X-100. (AMTPs influence on SLS hemolytic activity and on glucose oxidase activity was also tested. No influences were observed).
Fibroblasts in culture were exposed to a synergistic killing mechanism (streptolysin S in combination with an oxidant glucose oxidase) in a D-MEM culture medium that contained 1 mg/ml of glucose (about 0.5-1 mM of H2 O2 was produced after 1 hour of incubation at 37° C.). This system caused about 60% chromium released within an hour. […] The positive controls were DMTU and catalase.

[7] = Superoxide radical assay (xanthine/xanthine oxidase, cyt C reduction)
Experimental: Superoxide radicals were produced from reactions of xanthine/xanthine oxidase [Mccord, J. M. and Fridovich I. (1969) J. Biol. Chem. 244:6049-6055]. The enzyme unit was adjusted to produce a linear flux of superoxide radicals which gave a slope of 0.12 OD/min at 550 nm. by reduction of cyt-C.
Superoxide radicals were produced by the xanthine/xanthine oxidase system, and the prevention of cyt C reduction by compound B was measured (FIG. 8). […] The spontaneous second order reaction rate constant of superoxide with compound B was calculated from the initial slope to be 8.1*10^2 M^-1 S^-1.

CCOP(=S)(NCCO)OCC [Compound B, 2-hydroxyamido diethyithionophosphate]
oxidation by sodium hypochlorite [1]: complete oxidation of the sulfur group | logP ([2]; octanol/water, read-out: P (octanol/water) (converted)): 0.508 | P (oil/water) ([2]; oil(mineral)/water): 0.25 | light production at 8 mM ([3]; 8 mM, 1.5*10^6 cells/ml, control 50,000-63,000): 3500 light units | IC90 ([3]; Homo sapiens, Neutrophil, 3-4*10^5 cells/ml, read-out: concentration required to quench 90% of light production): < 1000 µM | reduction of light emission ([3]; various concentrations): dose dependent reduction of light emission | mortality ([4]; i.p., doses up to 500 mg/kg): No mortality was observed | changes in average weight ([4]; i.p., up to 500 mg/kg, monitoring of 30 days, vs saline control): nor were there any significant changes | mortality or weight differentiation ([4]; repetitive i.p. 75 mg/kg/day, two weeks): did not lead to any mortality or weight differentiation | LD50 at 720 h [5]: ~700 mg/kg | prevention of cell damage, comparative [6]: much more efficient than compound C | toxic effects on the cell ([6]; concentrations of up to 20 mM, compound alone): did not show any toxic effects | protection against cell killing ([6]; concentrations up to 10 mM, 60 min): 50-60% | reduction of cyt C by compound itself [7]: did not reduce cyt C | second order reaction rate constant with superoxide ([7]; calculated from the initial slope): 8.1*10^2 M^-1 S^-1
